# Assay results as given in patent US8097654B2, “Radiolabeled 3-[3-(benzoyl-amido)benzyloxy]aspartic acid derivative and method of producing the same” (Suntory Holdings Limited, priority 2004, dated 2012).
# What was measured:
# EAAT2 = EAAT2 (Homo sapiens, UniProt P43004); assay: Inhibition of [14C]-glutamic acid uptake by EAAT2 expressed in MDCK or COS-1 cells; type: cell-based; design: expressed in transfected cells; conditions: glutamate transporter, subtype not given
# Description: In accordance with a known method (Shimamoto, K. et al., Mol. Pharmacol. 53, 195-201, 1998; Bioorg. Med. Chem. Lett. 10, 2407-2410, 2000), the inhibitory activity was assayed as the ability to inhibit the uptake of [^14C]-glutamic acid by human EAAT2 and EAAT3 stably expressed in MDCK (Madin-Darby canine kidney) cells or transiently expressed in COS-1 cells. The glutamate uptake activity was assayed by incubating a mixture of 1 μM of L-[^14C]-glutamic acid with a sample compound at a predetermined concentration for 12 minutes, lysing the cells and then measuring the radioactivity incorporated into the cells with a liquid scintillator. The amount of uptake was expressed in percentage by referring the amount of uptake in the absence of a test compound (i.e., the buffer alone) as 100% and referring the amount of uptake in a sodium-free solution as 0%.
# [1] = Octanol-water partition coefficient (Log P); type: physicochemical; conditions: octanol/phosphate buffer, mean ± S.D.
# Description: Equal amounts of octanol and a phosphate buffer were mixed together and [^125I]I-BzA-TBOA was added thereto. After repeatedly shaking for 1 minute and allowing to stand for 1 minute three times, the mixture was allowed to stand for 20 minutes. After repeating this procedure three times, it was centrifuged (1,000×g, 10 min, 4° C.) and the radioactivity of each layer was measured. Thus, the partition coefficient was calculated (Table 1).
# [2] = Biodistribution of radioactivity after intravenous injection in mice; conditions: mean ± S.D.
# [3] = 2 min after i.v. administration
# [4] = 5 min after i.v. administration
# [5] = 15 min after i.v. administration
# [6] = 30 min after i.v. administration
# EAAT2, sequence (P43004 whole entry): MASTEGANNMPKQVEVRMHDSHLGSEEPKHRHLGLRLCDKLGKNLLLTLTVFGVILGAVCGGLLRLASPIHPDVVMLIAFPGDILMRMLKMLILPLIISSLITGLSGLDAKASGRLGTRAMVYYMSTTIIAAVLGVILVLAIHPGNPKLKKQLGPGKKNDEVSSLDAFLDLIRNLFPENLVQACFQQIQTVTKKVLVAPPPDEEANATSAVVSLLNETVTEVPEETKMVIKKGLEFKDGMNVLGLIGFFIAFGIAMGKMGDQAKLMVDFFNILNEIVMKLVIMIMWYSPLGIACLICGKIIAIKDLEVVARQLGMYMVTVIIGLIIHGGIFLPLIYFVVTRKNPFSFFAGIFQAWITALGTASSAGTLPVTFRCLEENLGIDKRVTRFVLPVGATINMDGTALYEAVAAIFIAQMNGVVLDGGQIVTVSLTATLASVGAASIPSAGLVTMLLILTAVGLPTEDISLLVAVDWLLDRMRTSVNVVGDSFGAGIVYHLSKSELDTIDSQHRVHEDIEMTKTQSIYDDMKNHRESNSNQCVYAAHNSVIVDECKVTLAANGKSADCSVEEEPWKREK
smiles,measurement,setting,value
N[C@H](C(=O)O)[C@H](OCc1cccc(NC(=O)c2ccc(F)cc2)c1)C(=O)O [F-BzA-TBOA],IC50 for glutamate transporter (in words),EAAT2,several ten nM order
"N[C@H](C(=O)O)[C@H](OCc1cccc(NC(=O)c2ccc([125I])cc2)c1)C(=O)O [[^125I]I-BzA-TBOA, (2S,3S)-3-[3-(4-[^125I]iodobenzoylamino)benzyloxy]aspartic acid]",Octanol/water partition coefficient (Log P),[1]; PH 3.0,0.641 ± 0.006
same,Octanol/water partition coefficient (Log P),[1]; PH 7.0,−0.821 ± 0.003
same,Octanol/water partition coefficient (Log P),[1]; PH 7.4,−0.849 ± 0.006
same,Octanol/water partition coefficient (Log P),[1]; PH 8.0,−0.936 ± 0.007
same,Radioactivity in Blood,[2]; [3],2.29 ± 0.23 percentage of injection dose per gram of each tissue
same,Radioactivity in Blood,[2]; [4],1.58 ± 0.25 percentage of injection dose per gram of each tissue
same,Radioactivity in Blood,[2]; [5],0.67 ± 0.19 percentage of injection dose per gram of each tissue
same,Radioactivity in Blood,[2]; [6],0.40 ± 0.12 percentage of injection dose per gram of each tissue
same,Radioactivity in Blood,[2]; 1 hr after i.v. administration,0.16 ± 0.04 percentage of injection dose per gram of each tissue
same,Radioactivity in Blood,[2]; 2 hr after i.v. administration,0.07 ± 0.01 percentage of injection dose per gram of each tissue
same,Radioactivity in Brain,[2]; [3],0.21 ± 0.09 percentage of injection dose per gram of each tissue
same,Radioactivity in Brain,[2]; [4],0.19 ± 0.18 percentage of injection dose per gram of each tissue
same,Radioactivity in Brain,[2]; [5],0.06 ± 0.09 percentage of injection dose per gram of each tissue
same,Radioactivity in Brain,[2]; [6],0.10 ± 0.13 percentage of injection dose per gram of each tissue
same,Radioactivity in Brain,[2]; 1 hr after i.v. administration,0.01 ± 0.02 percentage of injection dose per gram of each tissue
same,Radioactivity in Brain,[2]; 2 hr after i.v. administration,0.18 ± 0.23 percentage of injection dose per gram of each tissue
same,Radioactivity in Heart,[2]; [3],0.93 ± 0.06 percentage of injection dose per gram of each tissue
same,Radioactivity in Heart,[2]; [4],0.64 ± 0.13 percentage of injection dose per gram of each tissue
same,Radioactivity in Heart,[2]; [5],0.33 ± 0.04 percentage of injection dose per gram of each tissue
same,Radioactivity in Heart,[2]; [6],0.19 ± 0.14 percentage of injection dose per gram of each tissue
same,Radioactivity in Heart,[2]; 1 hr after i.v. administration,0.04 ± 0.02 percentage of injection dose per gram of each tissue
same,Radioactivity in Heart,[2]; 2 hr after i.v. administration,0.00 ± 0.00 percentage of injection dose per gram of each tissue
same,Radioactivity in Intestine,[2]; [3],1.76 ± 0.15 percentage of injection dose per gram of each tissue
same,Radioactivity in Intestine,[2]; [4],4.51 ± 1.36 percentage of injection dose per gram of each tissue
same,Radioactivity in Intestine,[2]; [5],12.28 ± 0.72 percentage of injection dose per gram of each tissue
same,Radioactivity in Intestine,[2]; [6],15.91 ± 1.65 percentage of injection dose per gram of each tissue
same,Radioactivity in Intestine,[2]; 1 hr after i.v. administration,20.05 ± 6.29 percentage of injection dose per gram of each tissue
same,Radioactivity in Intestine,[2]; 2 hr after i.v. administration,23.69 ± 1.58 percentage of injection dose per gram of each tissue
same,Radioactivity in Kidney,[2]; [3],15.17 ± 2.34 percentage of injection dose per gram of each tissue
same,Radioactivity in Kidney,[2]; [4],16.02 ± 0.57 percentage of injection dose per gram of each tissue
same,Radioactivity in Kidney,[2]; [5],14.47 ± 2.59 percentage of injection dose per gram of each tissue
same,Radioactivity in Kidney,[2]; [6],8.29 ± 2.63 percentage of injection dose per gram of each tissue
same,Radioactivity in Kidney,[2]; 1 hr after i.v. administration,2.08 ± 0.15 percentage of injection dose per gram of each tissue
same,Radioactivity in Kidney,[2]; 2 hr after i.v. administration,1.03 ± 0.23 percentage of injection dose per gram of each tissue
same,Radioactivity in Liver,[2]; [3],28.71 ± 1.97 percentage of injection dose per gram of each tissue
same,Radioactivity in Liver,[2]; [4],22.52 ± 4.43 percentage of injection dose per gram of each tissue
same,Radioactivity in Liver,[2]; [5],11.11 ± 0.24 percentage of injection dose per gram of each tissue
same,Radioactivity in Liver,[2]; [6],4.96 ± 1.65 percentage of injection dose per gram of each tissue
same,Radioactivity in Liver,[2]; 1 hr after i.v. administration,1.95 ± 0.46 percentage of injection dose per gram of each tissue
same,Radioactivity in Liver,[2]; 2 hr after i.v. administration,1.50 ± 0.43 percentage of injection dose per gram of each tissue
same,Radioactivity in Lung,[2]; [3],3.11 ± 0.22 percentage of injection dose per gram of each tissue
same,Radioactivity in Lung,[2]; [4],2.44 ± 0.59 percentage of injection dose per gram of each tissue
same,Radioactivity in Lung,[2]; [5],1.39 ± 0.12 percentage of injection dose per gram of each tissue
same,Radioactivity in Lung,[2]; [6],0.64 ± 0.42 percentage of injection dose per gram of each tissue
same,Radioactivity in Lung,[2]; 1 hr after i.v. administration,0.26 ± 0.06 percentage of injection dose per gram of each tissue
same,Radioactivity in Lung,[2]; 2 hr after i.v. administration,0.10 ± 0.02 percentage of injection dose per gram of each tissue
same,Radioactivity in Pancreas,[2]; [3],2.10 ± 0.24 percentage of injection dose per gram of each tissue
same,Radioactivity in Pancreas,[2]; [4],2.13 ± 0.26 percentage of injection dose per gram of each tissue
same,Radioactivity in Pancreas,[2]; [5],0.94 ± 0.02 percentage of injection dose per gram of each tissue
same,Radioactivity in Pancreas,[2]; [6],0.33 ± 0.23 percentage of injection dose per gram of each tissue
same,Radioactivity in Pancreas,[2]; 1 hr after i.v. administration,0.10 ± 0.06 percentage of injection dose per gram of each tissue
same,Radioactivity in Pancreas,[2]; 2 hr after i.v. administration,0.06 ± 0.04 percentage of injection dose per gram of each tissue
same,Radioactivity in Spleen,[2]; [3],1.11 ± 0.12 percentage of injection dose per gram of each tissue
same,Radioactivity in Spleen,[2]; [4],0.65 ± 0.12 percentage of injection dose per gram of each tissue
same,Radioactivity in Spleen,[2]; [5],0.30 ± 0.04 percentage of injection dose per gram of each tissue
same,Radioactivity in Spleen,[2]; [6],0.11 ± 0.07 percentage of injection dose per gram of each tissue
same,Radioactivity in Spleen,[2]; 1 hr after i.v. administration,0.03 ± 0.04 percentage of injection dose per gram of each tissue
same,Radioactivity in Spleen,[2]; 2 hr after i.v. administration,0.03 ± 0.03 percentage of injection dose per gram of each tissue
same,Radioactivity in Stomach,[2]; [3],1.12 ± 0.20 percentage of injection dose per gram of each tissue
same,Radioactivity in Stomach,[2]; [4],0.78 ± 0.22 percentage of injection dose per gram of each tissue
same,Radioactivity in Stomach,[2]; [5],0.88 ± 0.13 percentage of injection dose per gram of each tissue
same,Radioactivity in Stomach,[2]; [6],0.58 ± 0.40 percentage of injection dose per gram of each tissue
same,Radioactivity in Stomach,[2]; 1 hr after i.v. administration,0.74 ± 0.80 percentage of injection dose per gram of each tissue
same,Radioactivity in Stomach,[2]; 2 hr after i.v. administration,0.48 ± 0.19 percentage of injection dose per gram of each tissue
